# pIC50: −log10 of the molar value. Where “and” joins values, the source holds several entries; their conditions need not be identical. Identical values can stand only once.
# Molecular target: Human Constitutive (Hu C-20S) β5 Active Subunit (Homo sapiens, UniProt P28074)
# Assay: IC50 determination, human constitutive 20S proteasome β5c (suc-LLVY-AMC hydrolysis)
# Type: biochemical
# Details: Table 2; several values in a cell are repeat determinations; read-out: Hu c-20S IC50
row,SMILES,pIC50
1,CCC1CCCCN1C(=O)CC(NC(=O)CCC(C)C)C(=O)NC1CCCC1c1ncc(-c2ccc(F)cc2F)[nH]1 (stereo not shown) [CF-503292],5.31 and 5.03 and 5.09 and 5.07

# Same assay, conditions: Table 3; IC50 against human constitutive β5 active subunit; read-out: Hu-C20S β5
row,SMILES,pIC50
1,"CC(C)CCC(=O)N[C@@H](CC(=O)N1CCCC[C@@H]1C)C(=O)N[C@@H](C)c1ncc(-c2ccc(F)cc2F)[nH]1 [CEN-88, N—((S)-1-(((S)-1-(5-(2,4-Difluorophenyl)-1H-imidazol-2-yl)ethyl)amino)-4-((S)-2-methylpiperidin-1-yl)-1,4-dioxobutan-2-yl)-4-methylpentanamide]",4.82
2,"CC[C@H]1CCCCN1C(=O)C[C@H](NC(=O)CCC(C)C)C(=O)N[C@@H](C)c1nc2c(F)cccc2[nH]1 [CEN-3, N—((S)-4-((S)-2-Ethylpiperidin-1-yl)-1-(((S)-1-(4-fluoro-1H-benzo[d]imidazol-2-yl)ethyl)amino)-1,4-dioxobutan-2-yl)-4-methylpentanamide]",4.97
3,"CC(C)c1noc(N[C@@H](CC(=O)N2CCCC[C@@H]2C)C(=O)N[C@@H](C)c2ncc(-c3ccc(F)cc3F)[nH]2)n1 [CEN-95, (S)—N—((S)-1-(5-(2,4-Difluorophenyl)-1H-imidazol-2-yl)ethyl)-2-((3-isopropyl-1,2,4-oxadiazol-5-yl)amino)-4-((S)-2-methylpiperidin-1-yl)-4-oxobutanamide]",5.64
4,"Cc1cc(C(=O)N[C@@H](CC(=O)N2CCC[C@@H]2c2ccccc2)C(=O)NC(C)c2nc3ccccc3[nH]2)no1 (stereo partly drawn) [CEN-52, N-((2S)-1-((1-(1H-Benzo[d]imidazol-2-yl)ethyl)amino)-1,4-dioxo-4-((R)-2-phenylpyrrolidin-1-yl)butan-2-yl)-5-methylisoxazole-3-carboxamide]",5.12
5,"CC[C@H]1CCCCN1C(=O)C[C@H](NC(=O)C1CC1C(C)C)C(=O)N[C@@H](C)c1nc2c(F)cccc2[nH]1 (stereo partly drawn) [CEN-10, N—((S)-4-((S)-2-Ethylpiperidin-1-yl)-1-(((S)-1-(4-fluoro-1H-benzo[d]imidazol-2-yl)ethyl)amino)-1,4-dioxobutan-2-yl)-2-isopropylcyclopropane-1-carboxamide]",4.42
6,"C[C@H](NC(=O)[C@H](CC(=O)N1CCCC[C@@H]1C)Nc1nc2ccccc2o1)c1ncc(-c2ccc(F)cc2F)[nH]1 [CEN-109, (S)-2-(Benzo[d]oxazol-2-ylamino)-N—((S)-1-(5-(2,4-difluorophenyl)-1H-imidazol-2-yl)ethyl)-4-((S)-2-methylpiperidin-1-yl)-4-oxobutanamide]",5.14
7,"C[C@H](NC(=O)[C@H](CC(=O)N1CCCC[C@@H]1C)NS(=O)(=O)c1ccccc1)c1ncc(-c2ccc(F)cc2F)[nH]1 [CEN-110, (S)—N—((S)-1-(5-(2,4-Difluorophenyl)-1H-imidazol-2-yl)ethyl)-4-((S)-2-methylpiperidin-1-yl)-4-oxo-2-(phenylsulfonamido)butanamide]",5.09
8,"C[C@H](NC(=O)[C@H](CC(=O)N1CCCC[C@@H]1C)NC(=O)C1CC(C)(C)C1)c1nc2c(F)cccc2[nH]1 [CEN-39, N—((S)-1-(((S)-1-(4-Fluoro-1H-benzo[d]Imidazol-2-yl)ethyl)amino)-4-((S)-2-methylpiperidin-1-yl)-1,4-dioxobutan-2-yl)-3,3-dimethylcyclobutane-1-carboxamide]",5.12
9,"C[C@H](NC(=O)[C@H](CC(=O)N1CCCC[C@@H]1C)NC(=O)CC1CC1)c1ncc(Cc2ccccc2)[nH]1 [CEN-124, (S)—N—((S)-1-(5-Benzyl-1H-imidazol-2-yl)ethyl)-2-(2-cyclopropylacetamido)-4-((S)-2-methylpiperidin-1-yl)-4-oxobutanamide]",4.98
10,"CC[C@H]1CCCCN1C(=O)C[C@H](NC(=O)NCc1ccccc1)C(=O)N[C@@H](C)c1nc2c(F)cccc2[nH]1 [CEN-21, (S)-2-(3-Benzylureido)-4-((S)-2-ethylpiperidin-1-yl)-N—((S)-1-(4-fluoro-1H-benzo[d]imidazol-2-yl)ethyl)-4-oxobutanamide]",5.03
11,"CC[C@H]1CCCCN1C(=O)C[C@H](NS(=O)(=O)CCC(C)C)C(=O)N[C@@H](C)c1nc2c(F)cccc2[nH]1 [CEN-24, (S)-4-((S)-2-Ethylpiperidin-1-yl)-N—((S)-1-(4-fluoro-1H-benzo[d]imidazol-2-yl)ethyl)-2-((3-methylbutyl)sulfonamido)-4-oxobutanamide]",4.75
12,"CC(C)CCS(=O)(=O)N[C@@H](CC(=O)N1CCCC[C@@H]1C)C(=O)N[C@@H](C)c1ncc(-c2ccc(F)cc2F)[nH]1 [CEN-114, (S)—N—((S)-1-(5-(2,4-Difluorophenyl)-1H-imidazol-2-yl)ethyl)-2-((3-methylbutyl)sulfonamido)-4-((S)-2-methylpiperidin-1-yl)-4-oxobutanamide]",5.01
13,"CC(C)CCC(=O)N[C@@H](CC(=O)N1CCCC[C@@H]1C)C(=O)N[C@@H](C)c1nc2ccccc2[nH]1 [CEN-32, N—((S)-1-(((S)-1-(1H-Benzo[d]imidazol-2-yl)ethyl)amino)-4-((S)-2-methylpiperidin-1-yl)-1,4-dioxobutan-2-yl)-4-methylpentanamide]",4.63
14,"C[C@H](NC(=O)[C@H](CC(=O)N1CCC[C@@H]1c1ccccc1)NC(=O)CCC(C)(C)C)c1nc2ccccc2[nH]1 [CEN-54, N—((S)-1-(((S)-1-(1H-Benzo[d]imidazol-2-yl)ethyl)amino)-1,4-dioxo-4-((R)-2-phenylpyrrolidin-1-yl)butan-2-yl)-4,4-dimethylpentanamide]",4.78
15,"CC(C)C(=O)CN[C@@H](CC(=O)N1CCCC[C@@H]1C)C(=O)N[C@@H](C)c1ncc(-c2ccc(F)cc2F)[nH]1 [CEN-85, (S)—N—((S)-1-(5-(2,4-Difluorophenyl)-1H-imidazol-2-yl)ethyl)-2-((3-methyl-2-oxobutyl)amino)-4-((S)-2-methylpiperidin-1-yl)-4-oxobutanamide]",5.00
16,"CC(C)CCS(=O)(=O)N[C@@H](CC(=O)N1CCC[C@@H]1c1ccccc1)C(=O)N[C@H](C)c1nc2ccccc2[nH]1 [CEN-60, (S)—N—((R)-1-(1H-Benzo[d]imidazol-2-yl)ethyl)-2-((3-methylbutyl)sulfonamido)-4-oxo-4-((R)-2-phenylpyrrolidin-1-yl)butanamide]",4.97
17,"O=C(N[C@@H](CC(=O)N1CCCC1C1CC1)C(=O)NC1(c2nc3cccc(F)c3[nH]2)CC1)C1CC2(C1)CC(F)(F)C2 (stereo partly drawn) [CEN-64, N-((2S)-4-(2-Cyclopropylpyrrolidin-1-yl)-1-((1-(7-fluoro-1H-benzo[d]imidazol-2-yl)cyclopropyl)amino)-1,4-dioxobutan-2-yl)-6,6-difluorospiro[3.3]heptane-2-carboxamide]",5.62
18,"C[C@H](NC(=O)[C@H](CC(=O)N1CCC[C@@H]1C)NC(=O)CCC(C)(C)C)c1nc2ccccc2[nH]1 [CEN-33, N—((S)-1-(((S)-1-(1H-Benzo[d]imidazol-2-yl)ethyl)amino)-4-((S)-2-methylpyrrolidin-1-yl)-1,4-dioxobutan-2-yl)-4,4-dimethylpentanamide]",4.78
19,"CC[C@H]1CCCCN1C(=O)C[C@H](NC(=O)CCc1ccccc1)C(=O)N[C@@H](C)c1nc2c(F)cccc2[nH]1 [CEN-20, (S)-4-((S)-2-Ethylpiperidin-1-yl)-N—((S)-1-(4-fluoro-1H-benzo[d]imidazol-2-yl)ethyl)-4-oxo-2-(3-phenylpropanamido)butanamide]",5.59
20,"CC(C)C1CC1C(=O)N[C@@H](CC(=O)N1CCCC[C@@H]1C)C(=O)N[C@@H](C)c1nc2c(F)cccc2[nH]1 (stereo partly drawn) [CEN-40, N—((S)-1-(((S)-1-(4-Fluoro-1H-benzo[d]Imidazol-2-yl)ethyl)amino)-4-((S)-2-methylpiperidin-1-yl)-1,4-dioxobutan-2-yl)-2-isopropylcyclopropane-1-carboxamide]",5.57
21,"C[C@H](NC(=O)[C@H](CC(=O)N1CCCC1C1CC1)NC(=O)C1CC2(COC2)C1)c1nc2cccc(F)c2[nH]1 (stereo partly drawn) [CEN-51, N-((2S)-4-(2-Cyclopropylpyrrolidin-1-yl)-1-(((S)-1-(7-fluoro-1H-benzo[d]imidazol-2-yl)ethyl)amino)-1,4-dioxobutan-2-yl)-2-oxaspiro[3.3]heptane-6-carboxamide]",4.82
22,"C[C@H](NC(=O)[C@H](CC(=O)N1CCCC[C@@H]1C)NC(=O)c1cn(C)cn1)c1ncc(-c2ccc(F)cc2F)[nH]1 [CEN-93, N—((S)-1-(((S)-1-(5-(2,4-Difluorophenyl)-1H-imidazol-2-yl)ethyl)amino)-4-((S)-2-methylpiperidin-1-yl)-1,4-dioxobutan-2-yl)-1-methyl-1H-imidazole-4-carboxamide]",4.96
23,"CC[C@H]1CCCCN1C(=O)C[C@H](NC(=O)N(C)CC(C)C)C(=O)N[C@@H](C)c1nc2c(F)cccc2[nH]1 [CEN-15, (S)-4-((S)-2-Ethylpiperidin-1-yl)-N—((S)-1-(4-fluoro-1H-benzo[d]imidazol-2-yl)ethyl)-2-(3-isobutyl-3-methylureido)-4-oxobutanamide]",5.30
24,"CC[C@H]1CCCCN1C(=O)C[C@H](NC(=O)OCC(C)C)C(=O)N[C@@H](C)c1nc2c(F)cccc2[nH]1 [CEN-5, Isobutyl ((S)-4-((S)-2-Ethylpiperidin-1-yl)-1-(((S)-1-(4-fluoro-1H-benzo[d]imidazol-2-yl)ethyl)amino)-1,4-dioxobutan-2-yl)carbamate]",5.60
25,"Cc1cc(C(=O)N[C@@H](CC(=O)N2CCCCC2C)C(=O)N[C@@H](C)c2ncc(-c3ccccc3)[nH]2)no1 (stereo partly drawn) [CEN-117, 5-Methyl-N-((2S)-4-(2-methylpiperidin-1-yl)-1,4-dioxo-1-(((S)-1-(5-phenyl-1H-imidazol-2-yl)ethyl)amino)butan-2-yl)isoxazole-3-carboxamide]",4.96
26,"Cc1cc(C(=O)N[C@@H](CC(=O)N2CCC[C@@H]2c2ccccc2)C(=O)N[C@@H](C)c2ncc(Cc3ccccc3)[nH]2)no1 [CEN-123, N—((S)-1-(((S)-1-(5-Benzyl-1H-imidazol-2-yl)ethyl)amino)-1,4-dioxo-4-((R)-2-phenylpyrrolidin-1-yl)butan-2-yl)-5-methylisoxazole-3-carboxamide]",5.13
27,"CC[C@H]1CCCCN1C(=O)C[C@H](NC(=O)C1CC(C)(C)C1)C(=O)N[C@@H](C)c1nc2c(F)cccc2[nH]1 [CEN-9, N—((S)-4-((S)-2-Ethylpiperidin-1-yl)-1-(((S)-1-(4-fluoro-1H-benzo[d]imidazol-2-yl)ethyl)amino)-1,4-dioxobutan-2-yl)-3,3-dimethylcyclobutane-1-carboxamide]",5.36
